Reference: publication PMC4286194 (Biochemical Journal, 2015)

What was measured:
IRAK4 = target: T1, IRAK4 (Homo sapiens, UniProt Q9NWZ3); assay: Kinase profiling; assay type: biochemical
T1 sequence (Q9NWZ3 1-460): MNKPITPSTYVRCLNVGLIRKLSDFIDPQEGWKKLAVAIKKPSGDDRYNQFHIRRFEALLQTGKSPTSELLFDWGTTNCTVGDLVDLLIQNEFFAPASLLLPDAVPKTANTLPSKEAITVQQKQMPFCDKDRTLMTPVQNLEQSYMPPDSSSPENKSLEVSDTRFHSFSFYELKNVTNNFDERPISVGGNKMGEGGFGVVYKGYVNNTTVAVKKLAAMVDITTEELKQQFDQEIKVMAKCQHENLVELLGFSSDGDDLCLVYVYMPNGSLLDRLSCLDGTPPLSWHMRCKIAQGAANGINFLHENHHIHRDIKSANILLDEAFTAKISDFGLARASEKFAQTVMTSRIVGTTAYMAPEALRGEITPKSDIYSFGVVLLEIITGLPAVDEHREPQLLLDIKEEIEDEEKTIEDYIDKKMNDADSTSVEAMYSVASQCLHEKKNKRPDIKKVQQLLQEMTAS

p38 gamma MAPK = target: T2, p38 gamma MAPK (Homo sapiens, UniProt P53778); assay: Kinase profiling; assay type: biochemical
T2 sequence (P53778 1-367): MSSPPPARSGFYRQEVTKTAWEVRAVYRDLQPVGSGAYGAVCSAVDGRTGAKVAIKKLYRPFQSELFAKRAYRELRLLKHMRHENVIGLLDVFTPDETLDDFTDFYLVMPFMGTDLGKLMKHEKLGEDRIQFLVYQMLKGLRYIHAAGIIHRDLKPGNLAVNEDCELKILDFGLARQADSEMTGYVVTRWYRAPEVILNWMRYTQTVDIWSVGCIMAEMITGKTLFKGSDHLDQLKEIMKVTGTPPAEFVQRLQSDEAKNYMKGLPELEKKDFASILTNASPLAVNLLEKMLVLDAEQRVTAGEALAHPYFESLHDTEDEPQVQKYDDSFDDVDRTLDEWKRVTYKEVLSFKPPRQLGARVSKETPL

ERK5 = ERK5 (Homo sapiens, UniProt Q13164); assay: Kinase profiling; assay type: biochemical
Sequence of ERK5 (Q13164 whole entry): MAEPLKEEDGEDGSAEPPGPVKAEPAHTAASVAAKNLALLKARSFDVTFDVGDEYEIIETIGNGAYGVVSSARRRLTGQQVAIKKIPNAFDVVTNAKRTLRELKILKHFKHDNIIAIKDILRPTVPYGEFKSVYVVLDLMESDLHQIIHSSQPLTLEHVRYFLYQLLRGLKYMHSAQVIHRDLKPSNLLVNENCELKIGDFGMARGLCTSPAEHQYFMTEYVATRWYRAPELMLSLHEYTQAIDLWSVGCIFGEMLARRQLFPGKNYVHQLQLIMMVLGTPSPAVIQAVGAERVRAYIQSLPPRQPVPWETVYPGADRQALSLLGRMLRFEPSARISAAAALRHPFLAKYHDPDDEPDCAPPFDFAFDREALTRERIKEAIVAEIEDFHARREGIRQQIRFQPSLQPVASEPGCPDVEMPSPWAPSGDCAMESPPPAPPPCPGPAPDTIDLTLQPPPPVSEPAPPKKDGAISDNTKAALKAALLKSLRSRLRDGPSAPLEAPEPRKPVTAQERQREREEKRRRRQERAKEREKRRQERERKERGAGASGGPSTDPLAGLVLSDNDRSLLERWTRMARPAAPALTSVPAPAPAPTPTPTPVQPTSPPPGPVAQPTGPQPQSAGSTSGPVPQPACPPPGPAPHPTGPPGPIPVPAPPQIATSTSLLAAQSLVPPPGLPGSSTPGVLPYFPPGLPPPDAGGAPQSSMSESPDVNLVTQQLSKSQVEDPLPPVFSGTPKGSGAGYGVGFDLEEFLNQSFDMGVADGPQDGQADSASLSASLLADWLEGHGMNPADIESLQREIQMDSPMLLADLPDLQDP

SmMLCK = SmMLCK (Homo sapiens, UniProt Q15746); assay: Kinase profiling; assay type: biochemical
Sequence of SmMLCK (Q15746 923-1914): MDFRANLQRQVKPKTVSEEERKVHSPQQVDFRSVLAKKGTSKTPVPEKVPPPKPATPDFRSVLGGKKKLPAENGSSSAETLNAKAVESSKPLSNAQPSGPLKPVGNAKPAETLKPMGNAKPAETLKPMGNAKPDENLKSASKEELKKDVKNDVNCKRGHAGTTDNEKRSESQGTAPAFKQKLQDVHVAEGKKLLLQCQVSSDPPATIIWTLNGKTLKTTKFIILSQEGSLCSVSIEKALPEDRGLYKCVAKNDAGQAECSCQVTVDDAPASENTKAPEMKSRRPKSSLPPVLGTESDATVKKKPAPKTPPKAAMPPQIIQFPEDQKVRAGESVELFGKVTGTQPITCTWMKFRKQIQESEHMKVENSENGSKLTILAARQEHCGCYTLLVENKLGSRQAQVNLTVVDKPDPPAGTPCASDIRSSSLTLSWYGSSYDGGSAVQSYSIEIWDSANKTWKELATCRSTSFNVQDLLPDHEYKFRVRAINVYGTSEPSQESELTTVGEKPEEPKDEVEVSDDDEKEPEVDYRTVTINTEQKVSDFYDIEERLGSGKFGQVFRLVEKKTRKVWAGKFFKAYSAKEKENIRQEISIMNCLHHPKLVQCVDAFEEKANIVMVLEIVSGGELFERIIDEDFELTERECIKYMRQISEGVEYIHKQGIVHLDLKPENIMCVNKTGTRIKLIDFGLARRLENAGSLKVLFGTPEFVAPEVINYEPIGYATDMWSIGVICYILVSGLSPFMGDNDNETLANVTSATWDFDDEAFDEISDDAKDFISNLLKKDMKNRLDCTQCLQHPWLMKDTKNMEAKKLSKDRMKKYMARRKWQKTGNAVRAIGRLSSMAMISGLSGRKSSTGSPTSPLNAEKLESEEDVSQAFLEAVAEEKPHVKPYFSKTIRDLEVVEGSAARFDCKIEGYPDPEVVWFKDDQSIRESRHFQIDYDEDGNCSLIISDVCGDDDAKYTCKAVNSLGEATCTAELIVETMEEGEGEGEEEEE

HIPK1 = HIPK1 (Homo sapiens, UniProt Q86Z02); assay: Kinase profiling; assay type: biochemical
PLK1 = PLK1 (Homo sapiens, UniProt P53350); assay: Kinase profiling; assay type: biochemical
Sequence of PLK1 (P53350 whole entry): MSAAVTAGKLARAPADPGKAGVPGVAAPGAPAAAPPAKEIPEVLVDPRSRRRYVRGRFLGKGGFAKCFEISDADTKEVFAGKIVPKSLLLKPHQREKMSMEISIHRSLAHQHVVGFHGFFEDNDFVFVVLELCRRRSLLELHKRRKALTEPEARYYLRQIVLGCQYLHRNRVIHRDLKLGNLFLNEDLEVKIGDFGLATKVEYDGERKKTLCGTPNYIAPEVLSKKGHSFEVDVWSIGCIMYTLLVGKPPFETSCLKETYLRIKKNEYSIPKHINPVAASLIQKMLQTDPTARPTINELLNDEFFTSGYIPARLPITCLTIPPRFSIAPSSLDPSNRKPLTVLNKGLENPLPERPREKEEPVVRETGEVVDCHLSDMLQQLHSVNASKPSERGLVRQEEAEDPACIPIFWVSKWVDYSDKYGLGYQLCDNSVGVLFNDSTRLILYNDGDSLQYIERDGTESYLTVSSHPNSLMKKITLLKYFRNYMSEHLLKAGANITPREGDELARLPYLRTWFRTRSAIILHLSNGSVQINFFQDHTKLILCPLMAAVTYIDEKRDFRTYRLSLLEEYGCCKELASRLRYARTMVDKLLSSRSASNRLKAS

IRR = IRR (Homo sapiens, UniProt P14616); assay: Kinase profiling; assay type: biochemical
Sequence of IRR (P14616 27-1297): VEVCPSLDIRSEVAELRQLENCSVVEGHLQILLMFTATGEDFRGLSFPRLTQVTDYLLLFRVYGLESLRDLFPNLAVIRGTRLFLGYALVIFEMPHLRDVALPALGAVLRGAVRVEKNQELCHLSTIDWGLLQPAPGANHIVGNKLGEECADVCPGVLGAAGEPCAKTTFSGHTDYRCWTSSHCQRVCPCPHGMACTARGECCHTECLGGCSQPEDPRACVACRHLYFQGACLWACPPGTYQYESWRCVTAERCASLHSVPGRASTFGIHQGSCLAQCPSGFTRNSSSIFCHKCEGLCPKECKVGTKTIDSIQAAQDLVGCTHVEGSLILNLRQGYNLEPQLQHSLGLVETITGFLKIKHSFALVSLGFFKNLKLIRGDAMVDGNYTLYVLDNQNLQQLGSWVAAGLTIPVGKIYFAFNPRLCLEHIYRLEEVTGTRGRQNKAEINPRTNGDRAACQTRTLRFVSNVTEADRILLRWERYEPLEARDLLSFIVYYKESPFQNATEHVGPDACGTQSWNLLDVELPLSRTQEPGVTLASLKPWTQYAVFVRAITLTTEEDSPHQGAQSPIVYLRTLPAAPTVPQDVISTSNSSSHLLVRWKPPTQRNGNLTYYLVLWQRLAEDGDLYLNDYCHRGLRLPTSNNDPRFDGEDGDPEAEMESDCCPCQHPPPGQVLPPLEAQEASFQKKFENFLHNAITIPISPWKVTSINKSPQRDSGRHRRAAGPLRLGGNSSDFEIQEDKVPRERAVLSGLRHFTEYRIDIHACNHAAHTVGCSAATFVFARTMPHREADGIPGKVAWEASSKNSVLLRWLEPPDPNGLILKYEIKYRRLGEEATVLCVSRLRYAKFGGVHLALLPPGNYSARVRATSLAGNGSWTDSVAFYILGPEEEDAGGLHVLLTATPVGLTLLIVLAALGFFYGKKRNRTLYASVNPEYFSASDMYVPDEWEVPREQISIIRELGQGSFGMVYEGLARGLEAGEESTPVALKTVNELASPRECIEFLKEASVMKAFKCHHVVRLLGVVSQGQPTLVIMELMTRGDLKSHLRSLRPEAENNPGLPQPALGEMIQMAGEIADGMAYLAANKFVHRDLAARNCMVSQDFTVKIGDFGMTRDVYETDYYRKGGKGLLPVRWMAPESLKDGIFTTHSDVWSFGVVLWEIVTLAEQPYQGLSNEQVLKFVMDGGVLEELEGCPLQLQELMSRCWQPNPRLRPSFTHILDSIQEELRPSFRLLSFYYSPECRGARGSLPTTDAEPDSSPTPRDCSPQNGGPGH

SIK2 = SIK2 (Homo sapiens, UniProt Q9H0K1); assay: Kinase profiling; assay type: biochemical
Sequence of SIK2 (Q9H0K1 whole entry): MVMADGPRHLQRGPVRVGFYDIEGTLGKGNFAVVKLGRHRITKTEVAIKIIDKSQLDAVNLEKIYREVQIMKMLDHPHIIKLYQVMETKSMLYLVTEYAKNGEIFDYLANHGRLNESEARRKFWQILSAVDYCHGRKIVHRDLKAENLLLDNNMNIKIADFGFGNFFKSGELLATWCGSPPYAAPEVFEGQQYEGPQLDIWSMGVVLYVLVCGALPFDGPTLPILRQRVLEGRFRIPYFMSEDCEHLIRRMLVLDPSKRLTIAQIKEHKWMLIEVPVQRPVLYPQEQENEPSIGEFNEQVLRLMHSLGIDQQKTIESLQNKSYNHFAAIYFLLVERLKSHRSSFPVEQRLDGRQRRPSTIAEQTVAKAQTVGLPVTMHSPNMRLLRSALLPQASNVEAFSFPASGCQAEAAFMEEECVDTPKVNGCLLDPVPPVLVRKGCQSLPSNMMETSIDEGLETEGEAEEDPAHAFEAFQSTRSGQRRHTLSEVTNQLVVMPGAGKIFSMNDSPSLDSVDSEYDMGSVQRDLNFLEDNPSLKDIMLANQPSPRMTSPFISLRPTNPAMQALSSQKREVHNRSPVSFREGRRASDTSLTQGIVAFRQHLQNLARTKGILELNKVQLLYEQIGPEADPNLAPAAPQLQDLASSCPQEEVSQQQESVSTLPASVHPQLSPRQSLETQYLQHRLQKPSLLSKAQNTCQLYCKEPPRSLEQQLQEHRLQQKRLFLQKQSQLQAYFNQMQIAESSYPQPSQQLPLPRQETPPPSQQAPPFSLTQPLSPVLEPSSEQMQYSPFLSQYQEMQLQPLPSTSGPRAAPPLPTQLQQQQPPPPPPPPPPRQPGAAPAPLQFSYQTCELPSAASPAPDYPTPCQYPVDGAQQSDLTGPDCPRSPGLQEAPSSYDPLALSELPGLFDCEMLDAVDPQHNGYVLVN

CRTC3 = CRTC3 phosphorylation (immunoprecipitation, immunoblot); assay type: cell-based; details: RAW264.7 macrophages, 1 h
Protocol: RAW264.7 cells were cultured in DMEM containing 10% FBS, 2 mM glutamine and penicillin and streptomycin. […] Cells were treated for 1 h with or without inhibitors and then stimulated for up to 24 h with either 1 μg/ml Pam3CSK4 or 100 ng/ml LPS.
Cells were extracted in lysis buffer [50 mM Tris/HCl, pH 7.4, 1 mM EDTA, 1 mM EGTA, 50 mM NaF, 5 mM sodium pyrophosphate, 10 mM sodium β-glycerol 1-phosphate, 1 mM DTT, 1 mM sodium orthovanadate, 0.27 M sucrose, 1% (v/v) Triton X-100, 1 μg/ml aprotinin, 1 μg/ml leupeptin and 1 mM PMSF]. Cell extracts were clarified by centrifugation and protein concentrations were determined using the Bradford assay. To immunoprecipitate endogenous CRTC3, 1 mg of cell extract was incubated with 5 μg of anti-CRTC3 [13] covalently cross-linked on to Protein G–Sepharose. Immune complexes were washed three times with lysis buffer, eluted in 1% SDS and separated by SDS/PAGE. To detect proteins in cell lysates, 20 μg of protein extract was separated by SDS/PAGE. After transfer to PVDF membranes, proteins were detected by immunoblotting and visualized by treating the blots with ECL (GE Healthcare) followed by autoradiography.

CDK9-Cyclin T1 = CDK9-Cyclin T1 (Homo sapiens, UniProt P50750); assay: Kinase profiling; assay type: biochemical
IKK beta = target: T3, IKK beta (Homo sapiens, UniProt O14920); assay: Kinase profiling; assay type: biochemical
T3 sequence (O14920 1-756): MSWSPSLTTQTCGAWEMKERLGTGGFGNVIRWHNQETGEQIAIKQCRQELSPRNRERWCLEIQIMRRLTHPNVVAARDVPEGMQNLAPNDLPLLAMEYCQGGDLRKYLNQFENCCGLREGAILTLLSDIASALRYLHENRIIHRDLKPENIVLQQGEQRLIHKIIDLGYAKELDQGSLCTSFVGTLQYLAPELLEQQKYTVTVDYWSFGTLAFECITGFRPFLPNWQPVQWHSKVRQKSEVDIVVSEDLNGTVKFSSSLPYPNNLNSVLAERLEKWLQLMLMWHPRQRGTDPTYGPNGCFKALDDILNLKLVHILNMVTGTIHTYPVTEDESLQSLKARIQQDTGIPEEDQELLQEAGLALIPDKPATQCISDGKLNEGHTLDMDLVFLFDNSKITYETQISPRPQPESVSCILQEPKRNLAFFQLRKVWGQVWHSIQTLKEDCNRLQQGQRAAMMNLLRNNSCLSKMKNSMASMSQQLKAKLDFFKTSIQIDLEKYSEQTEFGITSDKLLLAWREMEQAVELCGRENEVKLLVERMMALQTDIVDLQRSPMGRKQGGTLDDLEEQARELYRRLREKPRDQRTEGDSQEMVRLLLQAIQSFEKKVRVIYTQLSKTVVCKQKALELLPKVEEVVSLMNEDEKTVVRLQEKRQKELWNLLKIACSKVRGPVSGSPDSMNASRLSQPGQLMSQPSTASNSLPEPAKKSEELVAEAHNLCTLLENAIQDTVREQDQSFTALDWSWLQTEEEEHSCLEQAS

MKK2 = MKK2 (Homo sapiens, UniProt P36507); assay: Kinase profiling; assay type: biochemical
Sequence of MKK2 (P36507 whole entry): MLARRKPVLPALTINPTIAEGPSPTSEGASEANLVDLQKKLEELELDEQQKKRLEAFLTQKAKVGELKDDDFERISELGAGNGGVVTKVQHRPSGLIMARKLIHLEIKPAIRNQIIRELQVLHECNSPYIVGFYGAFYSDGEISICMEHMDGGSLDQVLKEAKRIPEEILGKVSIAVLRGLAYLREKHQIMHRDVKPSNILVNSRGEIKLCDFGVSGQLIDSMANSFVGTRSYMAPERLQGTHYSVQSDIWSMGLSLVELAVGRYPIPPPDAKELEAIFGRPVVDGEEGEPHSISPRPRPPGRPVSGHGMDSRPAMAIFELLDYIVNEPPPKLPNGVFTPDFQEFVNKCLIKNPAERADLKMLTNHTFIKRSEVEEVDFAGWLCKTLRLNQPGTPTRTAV

Compound	remaining activity at 0.1 µM (IRAK4)	remaining activity at 1 µM (IRAK4)	remaining activity at 0.1 µM (p38 gamma MAPK)	remaining activity at 0.1 µM (ERK5)	remaining activity at 1 µM (ERK5)	remaining activity at 0.1 µM (SmMLCK)	remaining activity at 1 µM (SmMLCK)	remaining activity at 0.1 µM (HIPK1)	remaining activity at 1 µM (HIPK1)	remaining activity at 0.1 µM (PLK1)	remaining activity at 0.1 µM (IRR)	remaining activity at 1 µM (IRR)	remaining activity at 0.1 µM (SIK2)	remaining activity at 1 µM (SIK2)	Phosphorylation of CRTC3 at Ser162 and Ser370 (CRTC3)	remaining activity at 0.1 µM (CDK9-Cyclin T1)	remaining activity at 1 µM (CDK9-Cyclin T1)	remaining activity at 0.1 µM (IKK beta)	remaining activity at 0.1 µM (MKK2)	remaining activity at 1 µM (MKK2)	also measured
COc1cc(Nc2c(C#N)cnc3cc(OCCCN4CCN(C)CC4)c(OC)cc23)c(Cl)cc1Cl [Bosutinib, bosutinib]	55 ± 3%	23%	88 ± 3%	74 ± 6%	67 ± 10%	88 ± 2%	27 ± 1%	95%	57%	97 ± 12%	72 ± 5%	59 ± 1%	8%	3%	dephosphorylation	101 ± 8%	125 ± 16%	92 ± 15%	60 ± 3%	21 ± 4%	remaining activity at 1 µM (PLK1; 1 µM): 74 ± 6%
Cc1nc(Nc2ncc(C(=O)Nc3c(C)cccc3Cl)s2)cc(N2CCN(CCO)CC2)n1 [Dasatinib]	112 ± 24%	102 ± 6%	100 ± 4%	87 ± 2%	91 ± 4%	111 ± 4%	111 ± 7%	105 ± 4%	122 ± 6%	133 ± 18%	89 ± 4%	90 ± 14%	4 ± 1%	2 ± 1%	dephosphorylation	122 ± 8%	138 ± 12%	97 ± 21%	113 ± 11%	91%	remaining activity at 1 µM (p38 gamma MAPK; 1 µM): 105 ± 7%; remaining activity at 1 µM (IKK beta; 1 µM): 99 ± 9%
